# Legend:
# [1] = target: T1, THRβ (Homo sapiens, UniProt P10828); assay: THRβ binding assay (time-resolved FRET coactivator peptide recruitment); assay type: biochemical; conditions: THRβ-LBD/RXRα, SRC2-2 coactivator peptide recruitment, 4 hours at room temperature
# T1 construct: RXRα and THRβ-LBD Eu-anti-GST antibody with GST tag
# Protocol: Experimental methods: In vitro analysis of the agonistic effect of compounds on THRβ was performed using time-resolved fluorescence resonance energy transfer coactivator peptide recruitment assays. The assay used biotin-SRC2-2 coactivator peptide, streptavidin-d2, RXRα and THRβ-LBD Eu-anti-GST antibody with GST tag. Eu-anti-GST antibody indirectly labeled THRβ-LBD by binding to the GST tag. Streptavidin-d2 indirectly labeled the SRC2-2 coactivator peptide by binding to the biotin tag. In the presence of RXRα, THRβ-LBD can form heterodimer THRβ-LBD/RXRα with it. […] According to the effect of different concentrations of the compound on the activity of THRβ, the agonistic ability of the compound can be evaluated.
# The detailed procedure is as follows: • a. 100× reference compound or compound was prepared with DMSO, and equally diluted by 1:3. • b. 100× gradiently diluted reference compound or compound was diluted with 1× reaction buffer to 4×, which was then added to an assay plate. • c. A mixed solution of 4× THRβ-LBD and 4× RXRα was prepared with 1× reaction buffer, and added to the assay plate. • d. A mixed solution of 2× biotin-SRC2-2, 2× Eu-anti-GST, and 2× streptavidin-d2 was prepared with 1× reaction buffer, and added to the assay plate. • e. The assay plate was centrifuged at 1000 rpm for 1 min, and incubated at room temperature in the dark for 4 hours. • f.
# [2] = target: T2, THRα (Homo sapiens, UniProt P10827); assay: THRα binding assay (as the THRβ assay, THRβ replaced with THRα); assay type: biochemical; conditions: for EC50: THRα in place of THRβ; for THRα/β selectivity (fold): ratio of THRα EC50 to THRβ EC50
# T2 construct: GST
# T2 sequence (P10827 1-410 isoform P10827-2, other chains not shown): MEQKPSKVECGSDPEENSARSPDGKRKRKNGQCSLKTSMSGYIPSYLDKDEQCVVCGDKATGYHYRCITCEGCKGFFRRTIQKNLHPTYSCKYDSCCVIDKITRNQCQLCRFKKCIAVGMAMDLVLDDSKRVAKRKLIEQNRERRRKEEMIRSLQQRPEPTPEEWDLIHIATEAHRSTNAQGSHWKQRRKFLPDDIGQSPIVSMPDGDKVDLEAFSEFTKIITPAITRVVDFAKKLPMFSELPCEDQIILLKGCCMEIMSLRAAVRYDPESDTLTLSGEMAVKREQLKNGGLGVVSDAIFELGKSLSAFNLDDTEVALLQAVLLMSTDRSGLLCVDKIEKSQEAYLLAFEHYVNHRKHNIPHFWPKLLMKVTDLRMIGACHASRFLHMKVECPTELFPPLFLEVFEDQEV
# T2 sequence (P19793 whole entry partner, other chains not shown): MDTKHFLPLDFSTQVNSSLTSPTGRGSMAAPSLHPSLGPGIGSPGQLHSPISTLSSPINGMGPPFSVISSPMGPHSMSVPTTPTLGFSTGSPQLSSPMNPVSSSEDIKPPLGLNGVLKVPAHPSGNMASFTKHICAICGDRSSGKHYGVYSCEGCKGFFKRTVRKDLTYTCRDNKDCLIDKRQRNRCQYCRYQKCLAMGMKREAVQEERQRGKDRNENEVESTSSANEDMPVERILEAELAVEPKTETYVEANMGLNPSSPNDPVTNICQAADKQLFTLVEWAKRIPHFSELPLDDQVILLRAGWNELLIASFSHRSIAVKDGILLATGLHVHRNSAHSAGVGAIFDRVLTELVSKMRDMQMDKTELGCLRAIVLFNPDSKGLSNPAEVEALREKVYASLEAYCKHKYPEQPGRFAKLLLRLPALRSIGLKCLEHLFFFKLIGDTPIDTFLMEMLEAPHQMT
# [3] = In vitro liver microsome stability assay; assay type: in vitro ADME; conditions: liver microsomes, pH 7.4; human, 0.2 mg/mL liver microsomal protein, 1 μM test substance, 37° C.; read-out: Liver microsome stability (species: human): T½
# Protocol: The test substance and the positive control substance verapamil were respectively dissolved with DMSO to 10 mM as a stock solution. The above 10 mM stock solution was diluted with 70% acetonitrile aqueous solution to a concentration of 0.25 mM.
# An NADPH regeneration system finally containing concentrations of 6.5 mM NADP, 16.5 mM G-6-P, 3 U/mL G-6-PDH, and 3.3 mM MgCl was prepared.
# Stopping solution was an acetonitrile solution containing tolbutamide and propranolol (both internal standards).
# Phosphate buffer was a 100 mM K3PO4 (pH=7.4) buffer containing 3.3 mM MgCl2.
# Liver microsomal incubation system was a 100 mM phosphate buffer containing 0.2 mg/mL liver microsomal protein and 1 μM test substance/positive control.
# 80 μL of the mixed solution from the incubation system was taken. 400 μL of the stopping solution was added to precipitate protein. The mixture was vortexed and added with 20 μL of NADPH regeneration system as the sample at 0 min.
# 130 μL of NADPH regeneration system was added to the remaining 520 μL of protein-drug mixed solution. The mixture was mixed well, and incubated. The final incubation system was 650 μL, containing 0.2 mg/mL liver microsomal protein, 1 μM test substance/positive control, 1.3 mM NADP, 3.3 mM G-6-P, and 0.6 U/mL G-6-PDH.
# The mixed system was slowly shaken and incubated in a water bath at 37° C. 100 μL of the incubation solution was taken at 5, 10, 30, and 60 min, respectively, and added into a new 96-well plate with 400 μL of stopping solution in each well. The mixture in each well was mixed well, and the protein was precipitated by centrifuging at 4000×g for 15 minutes at 4° C.
# 100 μL of the supernatant was taken, and diluted with water at a ratio of 1:2. The samples were analyzed by LC-MS/MS.
# T1 sequence (P10828 217-461 limits assumed, other chains not shown): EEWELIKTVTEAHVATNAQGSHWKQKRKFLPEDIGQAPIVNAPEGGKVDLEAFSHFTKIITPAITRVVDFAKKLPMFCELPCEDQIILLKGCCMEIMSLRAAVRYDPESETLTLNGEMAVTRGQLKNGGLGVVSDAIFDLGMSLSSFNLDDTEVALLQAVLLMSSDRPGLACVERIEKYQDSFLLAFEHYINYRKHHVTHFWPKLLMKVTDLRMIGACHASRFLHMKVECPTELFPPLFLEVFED
# T1 sequence (P19793 whole entry partner, other chains not shown, the tested form may be a part): as the sequence (P19793 whole entry partner, other chains not shown) above
EC50 [1] [nM],EC50 [2] [nM],THRα/β selectivity (fold) [2] [fold],half-life at 1 μM [3] [min],Structure (SMILES)
23,290,12.6,62.8,"N#Cc1nn(-c2cc(Cl)c(Oc3ccc(=O)n(C4CCC4)c3)c(Cl)c2)c(=O)[nH]c1=O [Example 3, 2-(3,5-dichloro-4-[(1-cyclobutyl-6-oxo-1,6-dihydropyridin-3-yl)oxy]phenyl)-3,5-dioxo-2,3,4,5-tetrahydro-1,2,4-triazine-6-carbonitrile]"
561,,,110,"N#Cc1nn(-c2cc(Cl)c(Oc3ccc(=O)n(C4CCCC4=O)c3)c(Cl)c2)c(=O)[nH]c1=O (stereo not shown) [Example 4, 2-(3,5-dichloro-4-((6-oxo-1-(2-oxocyclopentyl)-1,6-dihydropyridin-3-yl)oxy)phenyl)-3,5-dioxo-2,3,4,5-tetrahydro-1,2,4-triazine-6-carbonitrile]"
20,,,2.1,"N#Cc1nn(-c2cc(Cl)c(Oc3ccc(=O)n(CC4CCCC4)c3)c(Cl)c2)c(=O)[nH]c1=O [Example 5, 2-(3,5-Dichloro-4-((1-(cyclopentylmethyl)-6-oxo-1,6-dihydropyridin-3-yl)oxy)phenyl) -3,5-dioxo-2,3,4,5-tetrahydro-1,2,4-triazine-6-carbonitrile]"
12,,,7,"N#Cc1nn(-c2cc(Cl)c(Oc3ccc(=O)n(C4CCCCC4)c3)c(Cl)c2)c(=O)[nH]c1=O [Example 9, 2-(3,5-Dichloro-4-((1-cyclohexyl-6-oxo-1,6-dihydropyridin-3-yl)oxy)phenyl)-3,5-dioxo-2,3,4,5-tetrahydro-1,2,4-triazine-6-carbonitrile]"
107,,,> 120,"N#Cc1nn(-c2cc(Cl)c(Oc3ccc(=O)n(C4CC4)c3)c(Cl)c2)c(=O)[nH]c1=O [Example 10, 2-(3,5-Dichloro-4-((1-cyclopropyl-6-oxo-1,6-dihydropyridin-3-yl)oxy)phenyl)-3,5-diox o-2,3,4,5-tetrahydro-1,2,4-triazine-6-carbonitrile]"
17,236,13.9,41.6,"N#Cc1nn(-c2cc(Cl)c(Oc3ccc(=O)n(C4=CCCC4)c3)c(Cl)c2)c(=O)[nH]c1=O [Example 11, 2-(3,5-Dichloro-4-((1-(cyclopentyl-1-en-1-yl)-6-oxo-1,6-dihydropyridin-3-yl)oxy)phenyl)-3,5-dioxo-2,3,4,5-tetrahydro-1,2,4-triazine-6-carbonitrile]"
18,,,4.4,N#Cc1nn(-c2cc(Cl)c(Oc3ccc(=O)n(C4CCCC4)c3)c(Cl)c2)c(=O)[nH]c1=O [Example 12]
30,600,20.0,4.6,[2H]C1(n2cc(Oc3c(Cl)cc(-n4nc(C#N)c(=O)[nH]c4=O)cc3Cl)ccc2=O)CCCC1 [Example 14]
793,,,11.5,"N#Cc1nn(-c2cc(Cl)c(Oc3cc(Cl)c(=O)n(C4CCCC4)c3)c(Cl)c2)c(=O)[nH]c1=O [Example 15, 2-(3,5-Dichloro-4-[(5-chloro-1-cyclopentyl-6-oxo-1,6-dihydropyridin-3-yl)oxy]phenyl) -3,5-dioxo-2,3,4,5-tetrahydro-1,2,4-triazine-6-carbonitrile]"
370,,,5.1,"N#Cc1nn(-c2cc(Cl)c(Oc3cc(F)c(=O)n(C4CCCC4)c3)c(Cl)c2)c(=O)[nH]c1=O [Example 16, 2-(3,5-Dichloro-4-((1-cyclopentyl-5-fluoro-6-oxo-1,6-dihydropyridin-3-yl)oxy)phenyl) -3,5-dioxo-2,3,4,5-tetrahydro-1,2,4-triazine-6-carbonitrile]"
450,,,3.2,"Cc1cc(Oc2c(Cl)cc(-n3nc(C#N)c(=O)[nH]c3=O)cc2Cl)cn(C2CCCC2)c1=O [Example 17, 2-(3,5-Dichloro-4-[(1-cyclopentyl-5-methyl-6-oxo-1,6-dihydropyridin-3-yl)oxy]phenyl) -3,5-dioxo-2,3,4,5-tetrahydro-1,2,4-triazine-6-carbonitrile]"
23,1140,49.5,,"N#Cc1cccc(-n2cc(Oc3c(Cl)cc(-n4nc(C#N)c(=O)[nH]c4=O)cc3Cl)ccc2=O)c1 [Example 28, 2-(3,5-Dichloro-4-((1-(3-cyanophenyl)-6-oxo-1,6-dihydropyridin-3-yl)oxy)phenyl)-3,5- -dioxo-1,2,3,4-4,5-tetrahydro-1,2,4-triazine-6-carbonitrile]"
18,351,19.5,,"Cc1nn(-c2cc(Cl)c(Oc3ccc(=O)n(-c4ccccc4)c3)c(Cl)c2)c(=O)[nH]c1=O [Example 36, 2-(3,5-Dichloro-4-((6-oxo-1-phenyl-1,6-dihydropyridin-3-yl)oxy)phenyl)-6-methyl-1,2,4-triazine-3,5(2H, 4H)-dione]"
92,9260,100.6,,"O=c1[nH]c(=O)n(-c2cc(Cl)c(Oc3ccc(=O)n(-c4ccc(F)cc4)c3)c(Cl)c2)nc1CF [Example 37, 2-(3,5-dichloro-4-((1-(4-fluorophenyl)-6-oxo-1,6-dihydropyridin-3-yl)oxy)phenyl)-6-(fluoromethyl)-1,2,4-triazine-3,5(2H, 4H)-dione]"
3,85,28.3,,"O=c1[nH]c(=O)n(-c2cc(Cl)c(Oc3ccc(=O)n(-c4cccc(F)c4)c3)c(Cl)c2)nc1CF [Example 38, 2-(3,5-dichloro-4-((1-(3-fluorophenyl)-6-oxo-1,6-dihydropyridin-3-yl)oxy)phenyl)-6-(fluoromethyl)-1,2,4-triazine-3,5(2H, 4H)-dione]"
5,117,23.3,,"O=c1[nH]c(=O)n(-c2cc(Cl)c(Oc3ccc(=O)n(-c4cccc(C(F)(F)F)c4)c3)c(Cl)c2)nc1CF [Example 39, 2-(3,5-Dichloro-4-((6-oxo-1-(3-(trifluoromethyl)phenyl)-1,6-dihydropyridin-3-yl)oxy)phenyl)-6-(fluoromethyl)-1,2,4-triazine-3,5(2H, 4H)-dione]"
4,95,23.7,,"O=c1[nH]c(=O)n(-c2cc(Cl)c(Oc3ccc(=O)n(-c4cccc(OC(F)(F)F)c4)c3)c(Cl)c2)nc1CF [Example 40, 2-(3,5-Dichloro-4-((6-oxo-1-(3-(trifluoromethoxy)phenyl)-1,6-dihydropyridin-3-yl)oxy)phenyl)-6-(fluoromethyl)-1,2,4-triazine-3,5(2H, 4H)-dione]"
117,7630,53.7,,"Cc1ccc(-n2cc(Oc3c(Cl)cc(-n4nc(CF)c(=O)[nH]c4=O)cc3Cl)ccc2=O)cc1 [Example 41, 2-(3,5-dichloro-4-((6-oxo-1-(p-tolyl)-1,6-dihydropyridin-3-yl)oxy)phenyl)-6-(fluoromethyl)-1,2,4-triazine-3,5(2H, 4H)-dione]"
9,696,72.5,,"Cc1cc(C)cc(-n2cc(Oc3c(Cl)cc(-n4nc(CF)c(=O)[nH]c4=O)cc3Cl)ccc2=O)c1 [Example 42, 2-(3,5-Dichloro-4-((1-(3,5-dimethylphenyl)-6-oxo-1,6-dihydropyridin-3-yl)oxy)phenyl) -6-(fluoromethyl)-1,2,4-triazine-3,5(2H, 4H)-dione]"

# Source: patent US20240109863A1, “2-PYRIDONE DERIVATIVE, AND PREPARATION METHOD THEREFOR AND PHARMACEUTICAL APPLICATION THEREOF” (KPC PHARMACEUTICALS, INC, priority 2020, published 2024)
